We go through six molecules from patent US20240376085A1 (Janssen Pharmaceutica NV, priority 2021, published 2024).

Broadly, the IC50 is the concentration needed to halve the response being measured. Read a low IC50 as higher potency.

The target of assay [1] is T1, IL-17A : IL-17RA binding (Homo sapiens, UniProt Q16552, K93Q).
T1 construct: Name: IL-17A-Flag
The assay can be described thus: IL-17A(FLAG-tagged):IL-17RA(His-tagged) binding disruption Eu-HTRF assay, Protocol 1. The following applies: FLAG-IL-17A 2.5 nM at 2x final concentration; average if tested more than once. The method in brief:
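IC50 came from a one-site competition fit of the acceptor/donor (665/620 nm) HTRF ratio. His-tagged IL-17RA, Eu-anti-FLAG and D2-anti-His were added after a 1 h rt compound preincubation with FLAG-tagged IL-17A dimer in PBS/0.01% Triton X-100, followed by 2 h at rt before reading.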

Assay [2] has as its target T1, IL-17A : IL-17RA binding. In words: IL-17A(FLAG-tagged):IL-17RA(His-tagged) binding disruption Eu-HTRF assay, Protocol 2. Particulars: FLAG-IL-17A 1 nM at 2x final concentration; average if tested more than once. The source says:
An antibody directed against the FLAG tag of IL-17A (SEQ ID NO: 1) is labeled with the HTRF donor chromophore (Europium-cryptate). IL-17A is present as a dimer that is “locked into” this quaternary structure due to the formation of loop-spanning […] disulfide bridges. The construct of IL-17RA used in the assay excludes the […] portion of the receptor and is fused to a C-terminal 10×His tag (SEQ ID NO:2). An antibody directed against the His tag of the IL-17RA chimera is labeled with the HTRF acceptor chromophore (“D2”). The fluorescence-resonance energy transfer (FRET) depends on the vicinity of the donor chromophore to the acceptor, and interruption of the binding between the IL-17A and IL-17RA causes the reduction/loss of FRET. Therefore, this assay allows to evaluate the compound effect on the binding IL-17A and IL-17RA by monitoring the fluorescence intensity of donor vs acceptor. The assay was run using either Protocol 1 or Protocol 2 as described below.
Protocol 2. 40 nl of 2-fold serial diluted compound solution for total 22 dilution points is added into each well of a 1536-well, white, low-volume, non-binding plate (Greiner #782904), then 2 μl of FLAG tagged IL-17A at 2× final concentration (1 nM) in solution of PBS+0.01% Triton-X100 is added to each well. The assay plate is briefly centrifuged then incubated for 1 h at rt. A mixed solution is prepared containing 2×5 nM 10HIS×IL-17RA, 2×2.5 nM Eu-anti-FLAG (CISBIO), 2×5 nM D2-anti-HIS (CISBIO) in PBS+0.01% Triton-X100+200 mM Potassium Fluoride (Sigma 60238) and 2 μl of mix is added to each well of the assay plate. The plate is briefly centrifuged then incubated for 2 h at rt. The HTRF intensities at the wavelength of donor (615 nm) and acceptor (665 nm) are measured using BMG Pherastar. The ratio between intensities at two wavelengths is calculated and plotted against the compound concentration and the data is fitted to a one-site competition model to yield IC50 of the compound.

For assay [3], the system named is IL-17A-induced G-CSF production in human normal keratinocyte (NHK). In words: NHK assay: IL-17A-induced G-CSF production in normal human keratinocytes. It counts as cell-based. The following applies: 24 h, IL-17A 5 ng/mL, average if tested more than once. The method, boiled down: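 IC50 derives from G-CSF in supernatants, quantified by HTRF from a standard curve, with CellTiter-Glo viability compared to DMSO control. Before a 24 h, 37°C culture of normal human keratinocytes at 3000–4000 cells/well, compound dilutions were preincubated 1 h at rt with human IL-17A (5 ng/mL final), with 0.2% DMSO and 5% FBS.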

T1 sequence (Q16552 with tags, fused parts or gaps K93Q): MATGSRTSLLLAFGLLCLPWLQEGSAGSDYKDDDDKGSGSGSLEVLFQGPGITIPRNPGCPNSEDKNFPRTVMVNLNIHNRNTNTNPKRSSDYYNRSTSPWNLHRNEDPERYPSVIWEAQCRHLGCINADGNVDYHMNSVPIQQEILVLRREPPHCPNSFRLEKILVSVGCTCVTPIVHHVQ

Consider `Cc1nonc1C(=O)N[C@@H](CO[C@@H](C)C(F)(F)F)c1nc2ccc([C@H](NC(=O)CC3CC(F)(F)C3)C3CC3)cc2[nH]1` (relative stereo) [Example 151, N—((R*)-1-(6-((R)-Cyclopropyl(2-(3,3-difluorocyclobutyl)acetamido)methyl)-1H-benzo[d]imidazol-2-yl)-2-(((S*)-1,1,1-trifluoropropan-2-yl)oxy)ethyl)-4-methyl-1,2,5-oxadiazole-3-carboxamide], for which the IC50 was less than 0.05 µM at IL-17A : IL-17RA binding [1]; 0.05 to 0.1 µM on IL-17A : IL-17RA binding [2]; greater than 0.1 µM in assay [3] (Homo sapiens, Keratinocyte).
Regarding `COC[C@H](NC(=O)CC1CC(F)(F)C1)c1ccc2nc([C@H](COC(C)(C)C(F)(F)F)NC(=O)c3nonc3C3CC3)[nH]c2c1` (relative stereo) [Example 164, 4-Cyclopropyl-N—((R)-1-(5-((R*)-1-(2-(3,3-difluorocyclobutyl)acetamido)-2-methoxyethyl)-1H-benzo[d]imidazol-2-yl)-2-((1,1,1-trifluoro-2-methylpropan-2-yl)oxy)ethyl)-1,2,5-oxadiazole-3-carboxamide], the IC50 on IL-17A : IL-17RA binding [1] is less than 0.05 µM; on IL-17A : IL-17RA binding [2], less than 0.05 µM; in assay [3] (Homo sapiens, Keratinocyte), less than 0.05 µM.
As for `C[C@@H](NC(=O)CC1CC(F)(F)C1)c1ccc2nc(C(COC(C)(C)C(F)(F)F)NC(=O)c3nonc3C3CC3)[nH]c2c1` (single isomer, unassigned) [Example 152, 4-Cyclopropyl-N—((R*)-1-(6-((R)-1-(2-(3,3-difluorocyclobutyl)acetamido)ethyl)-1H-benzo[d]imidazol-2-yl)-2-((1,1,1-trifluoro-2-methylpropan-2-yl)oxy)ethyl)-1,2,5-oxadiazole-3-carboxamide], the IC50 is less than 0.05 µM on IL-17A : IL-17RA binding [1]; less than 0.05 µM on IL-17A : IL-17RA binding [2]; less than 0.05 µM in assay [3] (Homo sapiens, Keratinocyte).
As to `CC(C)n1nccc1C(=O)N[C@H](c1nc2ccc([C@@H](C)NC(=O)CCC(F)(F)F)cc2[nH]1)C1CCC(F)(F)CC1` [Example 122, N—((S)-(4,4-Difluorocyclohexyl)(6-((R)-1-(4,4,4-trifluorobutanamido)ethyl)-1H-benzo[d]imidazol-2-yl)methyl)-1-isopropyl-1H-pyrazole-5-carboxamide], the half-maximal inhibitory concentration (IC50) is greater than 0.1 µM at IL-17A : IL-17RA binding [1]; greater than 0.1 µM at IL-17A : IL-17RA binding [2]; less than 0.05 µM in assay [3] (Homo sapiens, Keratinocyte).
As for `Cc1nonc1C(=O)N[C@H](c1nc2cc([C@@H](COC3CC3)NC(=O)CC3CC(F)(F)C3)ccc2[nH]1)[C@@H](C)O[C@@H](C)C(F)(F)F` [Example 274, N-((1R,2R)-1-(5-((S)-2-Cyclopropoxy-1-(2-(3,3-difluorocyclobutyl)acetamido)ethyl)-1H-benzo[d]imidazol-2-yl)-2-(((S)-1,1,1-trifluoropropan-2-yl)oxy)propyl)-4-methyl-1,2,5-oxadiazole-3-carboxamide], the IC50 (at IL-17A : IL-17RA binding [2]; in assay [3]) was 0.05 to 0.1 µM throughout.
`Cc1nonc1C(=O)N[C@H](c1nc2cc([C@@H](COC3CC3)NC(=O)C[C@H]3CC3(F)F)ccc2[nH]1)[C@@H](C)O[C@H](C)C(F)(F)F` [Example 275, N-((1R,2R)-1-(5-((S)-2-Cyclopropoxy-1-(2-((S)-2,2-difluorocyclopropyl)acetamido)ethyl)-1H-benzo[d]imidazol-2-yl)-2-(((R)-1,1,1-trifluoropropan-2-yl)oxy)propyl)-4-methyl-1,2,5-oxadiazole-3-carboxamide]: the half-maximal inhibitory concentration (IC50) on IL-17A : IL-17RA binding [2] lay in the range of 0.05 to 0.1 µM; in assay [3] (Homo sapiens, Keratinocyte) it was 0.05 to 0.1 µM.
